Test results as given in PubChem BioAssay AID248 (DTP/NCI, 2004).
Several values for one entry are separate records, joined by “and”; a condition that tells them apart may be missing. Identical values can stand only once. Inconclusive results and toxic doses are left out. Rule as the data show it: active = T/C of 150% or more; inactive = T/C below 125%.

System: L1210 leukemia ip in BDF1 mice, survival T/C
Experiment: NCI In Vivo Anticancer Drug Screen. Data for tumor model L1210 Leukemia (intraperitoneal) in B6D2F1 (BDF1) mice
Conditions: endpoint: mean survival time, higher = longer survival
Method in brief: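 Each compound was tested against a transplantable tumor grown in mice. The endpoint was survival, with treated animals benchmarked against vehicle controls as a simple ratio.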

[1] = dose: 50.0 mg/kg/injection, schedule: Q01DX009 (ip), vehicle: saline with Tween-80
[2] = dose: 100.0 mg/kg/injection, schedule: Q01DX009 (ip), vehicle: saline with Tween-80
[3] = dose: 200.0 mg/kg/injection, schedule: Q01DX009 (ip), vehicle: saline with Tween-80
[4] = dose: 100.0 mg/kg/injection, schedule: Q01DX001 (ip), vehicle: saline
[5] = dose: 200.0 mg/kg/injection, schedule: Q01DX001 (ip), vehicle: saline
[6] = dose: 400.0 mg/kg/injection, schedule: Q01DX001 (ip), vehicle: saline

Measured: T/C

COc1ccc(OC)c(NC(=O)NNC(=O)CNC(=O)Nc2ccc(Cl)c(Cl)c2)c1
inactive: dose: 12.5 mg/kg/injection, schedule: Q01DX009 (ip), vehicle: saline with Tween-80 95 % of control | dose: 25.0 mg/kg/injection, schedule: Q01DX009 (ip), vehicle: saline with Tween-80 95 % of control | [1] 91 % of control and 92 % of control | [2] 88 % of control | [3] 98 % of control

Cc1nc(N)[nH]c(=O)c1CCCS
inactive: [4] 104 % of control | [5] 101 % of control | [6] 102 % of control

O=C(Nc1cccc(C(F)(F)F)c1)Nc1ccccc1C(F)(F)F
inactive: dose: 100.0 mg/kg/injection, schedule: Q01DX009 (ip), vehicle: gum acacia 101 % of control | dose: 200.0 mg/kg/injection, schedule: Q01DX009 (ip), vehicle: gum acacia 101 % of control | dose: 400.0 mg/kg/injection, schedule: Q01DX009 (ip), vehicle: gum acacia 104 % of control

NC(=S)N/N=C/c1ccccc1S(=O)(=O)O
inactive: [4] 96 % of control | [5] 94 % of control | [6] 102 % of control

O=C(Nc1ccccc1)Oc1ccc(Cl)cc1
inactive: dose: 100.0 mg/kg/injection, schedule: Q01DX009 (ip), vehicle: Klucel (hydroxypropylcellulose) (HPC) 97 % of control | dose: 100.0 mg/kg/injection, schedule: Q04DX003 (ip), vehicle: Klucel (hydroxypropylcellulose) (HPC) 107 % of control | dose: 200.0 mg/kg/injection, schedule: Q01DX009 (ip), vehicle: Klucel (hydroxypropylcellulose) (HPC) 102 % of control | dose: 200.0 mg/kg/injection, schedule: Q04DX003 (ip), vehicle: Klucel (hydroxypropylcellulose) (HPC) 96 % of control | dose: 400.0 mg/kg/injection, schedule: Q01DX009 (ip), vehicle: Klucel (hydroxypropylcellulose) (HPC) 103 % of control | dose: 400.0 mg/kg/injection, schedule: Q04DX003 (ip), vehicle: Klucel (hydroxypropylcellulose) (HPC) 113 % of control

OCC1OC(CO)(OC2CC3C(O)CC(O)CC3OC2c2cc(O)c(O)c(O)c2)C(O)C1O (configuration not stated)
inactive: dose: 100.0 mg/kg/injection, schedule: Q01DX001 (ip), vehicle: carboxymethylcellulose (CMC) 103 % of control | dose: 200.0 mg/kg/injection, schedule: Q01DX001 (ip), vehicle: carboxymethylcellulose (CMC) 93 % of control | dose: 400.0 mg/kg/injection, schedule: Q01DX001 (ip), vehicle: carboxymethylcellulose (CMC) 92 % of control

CC(C)(C)NC(=O)CCC1CC(=O)NC12CCCCC2 (configuration not stated)
inactive: dose: 75.0 mg/kg/injection, schedule: Q01DX009 (ip), vehicle: Klucel (hydroxypropylcellulose) (HPC) 90 % of control | dose: 150.0 mg/kg/injection, schedule: Q01DX009 (ip), vehicle: Klucel (hydroxypropylcellulose) (HPC) 91 % of control | dose: 300.0 mg/kg/injection, schedule: Q01DX009 (ip), vehicle: Klucel (hydroxypropylcellulose) (HPC) 96 % of control

Oc1cccnc1CN1CCOCC1
inactive: [2] 96 % of control | dose: 100.0 mg/kg/injection, schedule: Q04DX003 (ip), vehicle: saline with Tween-80 97 % of control | [3] 89 % of control | dose: 200.0 mg/kg/injection, schedule: Q04DX003 (ip), vehicle: saline with Tween-80 108 % of control | dose: 400.0 mg/kg/injection, schedule: Q01DX009 (ip), vehicle: saline with Tween-80 96 % of control | dose: 400.0 mg/kg/injection, schedule: Q04DX003 (ip), vehicle: saline with Tween-80 100 % of control

O=C=NCCCl
inactive: dose: 0.5 mg/kg/injection, schedule: Q01DX001 (ip), vehicle: propolene glycol 101 % of control | dose: 1.0 mg/kg/injection, schedule: Q01DX001 (ip), vehicle: propolene glycol 90 % of control | dose: 2.0 mg/kg/injection, schedule: Q01DX001 (ip), vehicle: propolene glycol 89 % of control | dose: 3.0 mg/kg/injection, schedule: Q01DX001 (ip), vehicle: propolene glycol 89 % of control | dose: 4.0 mg/kg/injection, schedule: Q01DX001 (ip), vehicle: propolene glycol 92 % of control | dose: 6.0 mg/kg/injection, schedule: Q01DX001 (ip), vehicle: propolene glycol 89 % of control | dose: 6.5 mg/kg/injection, schedule: Q01DX001 (ip), vehicle: olive oil, sesame oil, peanut oil 98 % of control | dose: 8.0 mg/kg/injection, schedule: Q01DX001 (ip), vehicle: propolene glycol 92 % of control | dose: 12.5 mg/kg/injection, schedule: Q01DX001 (ip), vehicle: propolene glycol 95 % of control | dose: 12.5 mg/kg/injection, schedule: Q01DX009 (sc), vehicle: olive oil, sesame oil, peanut oil 95 % of control | dose: 13.0 mg/kg/injection, schedule: Q01DX001 (ip), vehicle: olive oil, sesame oil, peanut oil 104 % of control | dose: 25.0 mg/kg/injection, schedule: Q01DX001 (ip), vehicle: propolene glycol 91 % of control | dose: 25.0 mg/kg/injection, schedule: Q01DX009 (sc), vehicle: olive oil, sesame oil, peanut oil 103 % of control | dose: 26.0 mg/kg/injection, schedule: Q01DX001 (ip), vehicle: olive oil, sesame oil, peanut oil 96 % of control | dose: 40.0 mg/kg/injection, schedule: Q01DX001 (ip), vehicle: olive oil, sesame oil, peanut oil 102 % of control | dose: 50.0 mg/kg/injection, schedule: Q01DX009 (sc), vehicle: olive oil, sesame oil, peanut oil 97 % of control | dose: 60.0 mg/kg/injection, schedule: Q01DX001 (ip), vehicle: olive oil, sesame oil, peanut oil 98 % of control | dose: 93.0 mg/kg/injection, schedule: Q01DX001 (ip), vehicle: olive oil, sesame oil, peanut oil 100 % of control | dose: 100.0 mg/kg/injection, schedule: Q04DX003 (sc), vehicle: olive oil, sesame oil, peanut oil 97 % of control | dose: 125.0 mg/kg/injection, schedule: Q01DX001 (ip), vehicle: olive oil, sesame oil, peanut oil 106 % of control | dose: 187.0 mg/kg/injection, schedule: Q01DX001 (ip), vehicle: olive oil, sesame oil, peanut oil 98 % of control | dose: 250.0 mg/kg/injection, schedule: Q01DX001 (ip), vehicle: olive oil, sesame oil, peanut oil 98 % of control | dose: 250.0 mg/kg/injection, schedule: Q01DX001 (ip), vehicle: propolene glycol 113 % of control | dose: 375.0 mg/kg/injection, schedule: Q01DX001 (ip), vehicle: olive oil, sesame oil, peanut oil 104 % of control | dose: 500.0 mg/kg/injection, schedule: Q01DX001 (ip), vehicle: olive oil, sesame oil, peanut oil 93 % of control

CCCCCCCC(N)C(=O)O (configuration not stated)
inactive: dose: 100.0 mg/kg/injection, schedule: Q04DX002 (ip), vehicle: gum acacia 95 % of control | dose: 200.0 mg/kg/injection, schedule: Q04DX002 (ip), vehicle: gum acacia 104 % of control | dose: 400.0 mg/kg/injection, schedule: Q04DX002 (ip), vehicle: gum acacia 88 % of control

COc1cc([N+](=O)[O-])c(C(OC(C)=O)OC(C)=O)cc1Br
inactive: dose: 100.0 mg/kg/injection, schedule: Q01DX001 (ip), vehicle: acetone 98 % of control | dose: 100.0 mg/kg/injection, schedule: Q01DX009 (ip), vehicle: saline 94 % of control | dose: 100.0 mg/kg/injection, schedule: Q04DX003 (ip), vehicle: saline 105 % of control | dose: 200.0 mg/kg/injection, schedule: Q01DX001 (ip), vehicle: acetone 88 % of control | dose: 200.0 mg/kg/injection, schedule: Q01DX009 (ip), vehicle: saline 86 % of control | dose: 200.0 mg/kg/injection, schedule: Q04DX003 (ip), vehicle: saline 109 % of control | dose: 400.0 mg/kg/injection, schedule: Q01DX001 (ip), vehicle: acetone 97 % of control | dose: 400.0 mg/kg/injection, schedule: Q01DX009 (ip), vehicle: saline 88 % of control | dose: 400.0 mg/kg/injection, schedule: Q04DX003 (ip), vehicle: saline 105 % of control

COC(=O)C1(C)CCCC2(C)C1CCC13OCC(CC21)C(O)(C(C)C)C3O (configuration not stated)
inactive: [1] 97 % of control | [2] 97 % of control | [3] 90 % of control
